In brackets after ≈: the same amount, converted by molar mass. Read-outs that look alike come from different tables or passages of the source.
Columns and labels:
Jack bean urease = Jack bean urease (Canavalia ensiformis, UniProt P07374); test: Screening of urease inhibitory activities (indophenol method, enzymatic); assay type: biochemical
Method: Urease inhibition effects of the synthesized compounds were determined according to the previously reported procedure[37]–[39]. Briefly, 100 μL of the synthesized compounds at different concentrations was added to 850 μL of urea as substrate and 50 μL urease (3 mg/mL) in phosphate buffer, pH = 7.4). After 30 min, to 100 μL of the incubated solution, 500 μL of solution I (5.0 g phenol and 25.0 mg sodium nitroprusside in 500 mL water) was added, followed by the addition of 500 μL of solution II (2.5 g sodium hydroxide, 4.2 mL sodium hypochlorite, and 5% chlorine in 500 mL water) which was further incubated at 37 °C for 30 min. The absorbance of blue-colored indophenol of each cell is related to the percentage of enzyme inhibition using the following equation at 625 nm. The IC50 values for all synthesized compounds were calculated using GraphPad Prism software (GraphPad Software, Inc., San Diego, CA).

urease [1] = target: urease (Canavalia ensiformis, UniProt P07374); test: Kinetic study of urease inhibition (Lineweaver–Burk); assay type: biochemical, Jack bean
Method: The kinetic study for the inhibition of urease by compound 6a was carried out using four different concentrations of inhibitor. Compound 6a was tested at […] concentrations against urease for the kinetic study. The Lineweaver–Burk reciprocal plot was constructed by plotting 1/V against 1/[S] at variable concentrations of the substrate urea (3.12 to 100 mM). The inhibition constant Ki was calculated by the plot of slopes versus the corresponding concentrations of compound 6a.

C. neoformans (H99) = test: Anti-ureolytic activity, colorimetric urea broth microdilution; assay type: cell-based, Cryptococcus neoformans; conditions: read after three days, means ± SD of 3 independent experiments; for IC50: Cryptococcus neoformans, 72 h
Method: (§1) The colorimetric microdilution technique using urea broth media (Merck) was used to examine the ureolytic activity of C. neoformans (H99), and clinical isolate of P. mirabilis treated with tested substances (supplemented with glucose; pH = 6 for C. neoformans). Compounds in the concentration range of 1 to 512 μg/mL were exposed to ureolytic microorganisms, and the color of the medium was evaluated visually and spectroscopically at 560 nm after three days for C. neoformans and 24 h for P. mirabilis. The positive control, which included ureolytic bacteria but no drugs, changed color from yellow to dark pink or magenta. This shifts, allowing the determination of the inhibitory activity of compounds against the urease activity of organisms even without a microliter plate reader[45],[46].

P. mirabilis = test: as above; assay type: cell-based, Proteus mirabilis; conditions: read after 24 h, means ± SD of 3 independent experiments; for IC50: Proteus mirabilis, read-out: urease inhibitory activity IC50 (µg/mL) ± SD
Method: as §1

[2] = tested on: Cryptococcus neoformans (H99); test: In vitro antimicrobial activity, CLSI microbroth dilution (yeast); assay type: cell-based
Method: The antimicrobial activities of all derivatives against C. neoformans (H99), and clinical isolate of P. mirabilisas urease positive microorganism, were tested as recommended by the Clinical and Laboratory Standards Institute (CLSI) (M07-A9 for bacteria; M27-A3 for yeasts). The compounds were diluted, and stock solutions of 20 mg/mL in DMSO were prepared. Mueller–Hinton Broth (HiMedia) and RPMI-1640 (Sigma) were prepared as recommended for antimicrobial susceptibility testing of bacterial and fungal strains, respectively. Two-fold dilutions were made in the range of 1–512 μg/mL for tested compounds. The microbroth dilution test was accomplished using a 96-well microtiter plate containing growth control (drug free wellls) and sterility control (only broth media). The antimicrobial susceptibility test was accomplished by adding a cell suspension adjusted to the 0.5 McFarland standard (1–2 × 10^8 CFU/mL for bacterial strains; 1–5 × 10^6 cells/mL for yeast) to different concentrations of tested compounds. […] All experiments were performed in duplicates.

Proteus mirabilis = test: In vitro antimicrobial activity, CLSI microbroth dilution (bacteria); assay type: cell-based; conditions: clinical isolate
Method: M27-A3 for yeasts). The compounds were diluted, and stock solutions of 20 mg/mL in DMSO were prepared. Mueller-Hinton Broth (HiMedia) and RPMI-1640 (Sigma) were prepared as recommended for antimicrobial susceptibility testing of bacterial and fungal strains, respectively. Two-fold dilutions were made in the range of 1-512 μg/mL for tested compounds. […] All experiments were performed in duplicates.

urease [3] = conditions: cited from earlier work
[4] = read-out: urease inhibitory activity IC50 (µg/mL) ± SD, C. neoformans
[5] = urease enzymatic assessment, mean ± SD of three independent experiments, read-out: IC50 (µM) ± SD
[6] = C. neoformans, read-out: urease inhibitory activity IC50 (µg/mL) ± SD

Jack bean urease, sequence (P07374 whole entry, looked up): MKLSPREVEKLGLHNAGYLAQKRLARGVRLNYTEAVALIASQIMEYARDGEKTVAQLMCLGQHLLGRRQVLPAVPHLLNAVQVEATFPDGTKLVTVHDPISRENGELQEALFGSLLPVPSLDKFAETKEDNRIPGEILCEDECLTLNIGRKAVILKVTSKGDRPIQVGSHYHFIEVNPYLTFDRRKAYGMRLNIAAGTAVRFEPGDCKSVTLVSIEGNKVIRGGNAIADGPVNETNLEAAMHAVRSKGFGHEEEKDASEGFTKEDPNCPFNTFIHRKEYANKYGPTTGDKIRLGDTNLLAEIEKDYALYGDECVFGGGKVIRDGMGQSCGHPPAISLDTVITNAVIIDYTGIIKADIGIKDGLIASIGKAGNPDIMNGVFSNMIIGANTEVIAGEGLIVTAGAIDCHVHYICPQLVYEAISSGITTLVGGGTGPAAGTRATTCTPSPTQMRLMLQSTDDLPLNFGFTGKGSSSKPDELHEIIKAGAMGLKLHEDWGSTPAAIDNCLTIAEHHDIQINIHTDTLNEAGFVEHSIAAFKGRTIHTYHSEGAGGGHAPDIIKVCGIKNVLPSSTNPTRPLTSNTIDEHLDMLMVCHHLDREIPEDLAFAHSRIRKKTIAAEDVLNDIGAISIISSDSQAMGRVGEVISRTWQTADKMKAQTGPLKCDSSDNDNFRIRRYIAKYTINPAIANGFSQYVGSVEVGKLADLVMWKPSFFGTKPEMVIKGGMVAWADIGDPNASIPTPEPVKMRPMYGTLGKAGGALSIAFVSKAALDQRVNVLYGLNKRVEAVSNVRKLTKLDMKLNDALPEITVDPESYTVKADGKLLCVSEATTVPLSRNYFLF
urease (Canavalia ensiformis, UniProt P07374), sequence (P07374 whole entry, looked up): as above

| Structure (SMILES) | IC50 (Jack bean urease) [µM] | melting point [°C] | IC50 (P. mirabilis) [µg/mL] | MIC ([2]; read-out: MIC) [µg/mL] | MIC (Proteus mirabilis; read-out: MIC) [µg/mL] | IC50 (C. neoformans (H99); [6]) [µg/mL] | other results |
| --- | --- | --- | --- | --- | --- | --- | --- |
| c1ccc(CSc2nn3c(-c4ccccc4)nnc3s2)cc1 [Compound 6a, 6-(benzylthio)-3-phenyl-[1,2,4]triazolo[3,4-b][1,3,4]thiadiazole] | 0.87 ± 0.09 | 217 to 219 | 78.2 ± 8.5 (≈ 241 µM) | > 256 | 256 (≈ 789 µM) |  | improvement in the activity vs positive control (Jack bean urease; vs thiourea): around 27 times; Ki (urease [1]): 1370 nM; type of inhibition (urease [1]; Lineweaver–Burk plot): competitive; IC50 (C. neoformans (H99); [4]): > 124 µg/mL |
| Cc1cccc(CSc2nn3c(-c4ccccc4)nnc3s2)c1 [Compound 6n, 6-((3-methylbenzyl)thio)-3-phenyl-[1,2,4]triazolo[3,4-b][1,3,4]thiadiazole] |  |  |  |  |  |  | IC50 (Jack bean urease; [5]): 1.23 ± 0.56 µM; urease inhibitory activity IC50 (µg/mL) ± SD (C. neoformans (H99); C. neoformans): 112.3 ± 4.6 µg/mL; urease inhibitory activity IC50 (µg/mL) ± SD (P. mirabilis): 96.8 ± 4.7 µg/mL; MIC [2]: > 256 µg/mL; MIC (Proteus mirabilis): 256 µg/mL (≈ 756 µM) |
| Cc1ccccc1CSc1nn2c(-c3ccccc3)nnc2s1 [Compound 6m, 6-((2-methylbenzyl)thio)-3-phenyl-[1,2,4]triazolo[3,4-b][1,3,4]thiadiazole] |  |  |  |  |  |  | IC50 (Jack bean urease; [5]): 1.6 ± 0.23 µM; urease inhibitory activity IC50 (µg/mL) ± SD (C. neoformans (H99); C. neoformans): 110.9 ± 3.8 µg/mL; urease inhibitory activity IC50 (µg/mL) ± SD (P. mirabilis): 95.7 ± 6.6 µg/mL; MIC [2]: > 256 µg/mL; MIC (Proteus mirabilis): 256 µg/mL (≈ 756 µM) |
| Brc1ccccc1CSc1nn2c(-c3ccccc3)nnc2s1 [Compound 6i, 6-((2-bromobenzyl)thio)-3-phenyl-[1,2,4]triazolo[3,4-b][1,3,4]thiadiazole] | 1.59 ± 0.14 | 210 to 212 | 109 ± 6.2 (≈ 271 µM) | > 256 | 256 (≈ 635 µM) | 112 ± 6.7 (≈ 278 µM) |  |
| O=C(NC1CCCCC1)C(c1cccs1)N(C(=O)CSc1nnc(-c2ccc([N+](=O)[O-])o2)s1)c1ccccc1 (centres unmarked) [F] |  |  |  |  |  |  | improvement in the inhibitory potency against urease compared to thiourea (urease [3]): tenfold; mode of inhibition (urease [3]; urease): non-competitive |
| Fc1ccccc1CSc1nn2c(-c3ccccc3)nnc2s1 [Compound 6b, 6-((2-fluorobenzyl)thio)-3-phenyl-[1,2,4]triazolo[3,4-b][1,3,4]thiadiazole] | 1.51 ± 0.21 | 190 to 192 | 87.3 ± 4.9 (≈ 255 µM) | > 256 | 256 (≈ 748 µM) | 111 ± 7.4 (≈ 324 µM) |  |
| CCNc1nnc(Cc2nc3ccccc3c(=O)n2Cc2ccc(F)cc2)s1 [E] |  |  |  |  |  |  | IC50 (urease [3]; urease): 1.88 ± 0.17 µg/mL |
| Brc1cccc(CSc2nn3c(-c4ccccc4)nnc3s2)c1 [Compound 6j, 6-((3-bromobenzyl)thio)-3-phenyl-[1,2,4]triazolo[3,4-b][1,3,4]thiadiazole] | 1.05 ± 0.34 | 225 to 227 | 112 ± 6.9 (≈ 278 µM) | > 256 | 256 (≈ 635 µM) | 111 ± 4.8 (≈ 276 µM) |  |
| Cc1ncc([N+](=O)[O-])n1Cc1cn(Cc2ccc(F)cc2)nn1 [C] |  |  |  |  |  |  | IC50 (urease [3]; urease, read-out: IC50): 1980 ± 250 nM |
| O=[N+]([O-])c1ccc(CSc2nn3c(-c4ccccc4)nnc3s2)cc1 [Compound 6l, 6-((4-nitrobenzyl)thio)-3-phenyl-[1,2,4]triazolo[3,4-b][1,3,4]thiadiazole] |  |  |  |  |  |  | IC50 (Jack bean urease; [5]): 2.22 ± 0.18 µM; urease inhibitory activity IC50 (µg/mL) ± SD (C. neoformans (H99); C. neoformans): 113.6 ± 5.4 µg/mL; urease inhibitory activity IC50 (µg/mL) ± SD (P. mirabilis): 91.8 ± 7.0 µg/mL; MIC [2]: > 256 µg/mL; MIC (Proteus mirabilis): 256 µg/mL (≈ 693 µM) |
| Fc1cccc(CSc2nn3c(-c4ccccc4)nnc3s2)c1 [Compound 6c, 6-((3-fluorobenzyl)thio)-3-phenyl-[1,2,4]triazolo[3,4-b][1,3,4]thiadiazole] | 1.4 ± 0.29 | 216 to 218 | 79.8 ± 3.5 (≈ 233 µM) | > 256 | 256 (≈ 748 µM) | 117 ± 6.4 (≈ 343 µM) |  |
| COc1ccc(NC(=O)NCc2cn(Cc3ccc(Cl)cc3Cl)nn2)cc1 [B] |  |  |  |  |  |  | IC50 (urease [3]; urease, read-out: IC50): 22810 ± 50 nM |
| Clc1ccccc1CSc1nn2c(-c3ccccc3)nnc2s1 [Compound 6e, 6-((2-chlorobenzyl)thio)-3-phenyl-[1,2,4]triazolo[3,4-b][1,3,4]thiadiazole] | 8.32 ± 1.21 | 224 to 226 | 93.3 ± 5.2 (≈ 260 µM) | > 256 | 256 (≈ 713 µM) | 102 ± 3.3 (≈ 284 µM) | MIC (µg/mL) [2]: almost inactive |
| Brc1ccc(CSc2nn3c(-c4ccccc4)nnc3s2)cc1 [Compound 6k, 6-((4-bromobenzyl)thio)-3-phenyl-[1,2,4]triazolo[3,4-b][1,3,4]thiadiazole] |  |  |  |  |  |  | IC50 (Jack bean urease; [5]): 1.53 ± 0.17 µM; urease inhibitory activity IC50 (µg/mL) ± SD (C. neoformans (H99); C. neoformans): 118.7 ± 5.5 µg/mL; urease inhibitory activity IC50 (µg/mL) ± SD (P. mirabilis): 113.7 ± 4.6 µg/mL; MIC [2]: > 256 µg/mL; MIC (Proteus mirabilis): 256 µg/mL (≈ 635 µM) |
| Clc1ccc(CSc2nn3c(-c4ccccc4)nnc3s2)cc1Cl [Compound 6h, 6-((3,4-dichlorobenzyl)thio)-3-phenyl-[1,2,4]triazolo[3,4-b][1,3,4]thiadiazole] | 1.41 ± 0.32 | 215 to 217 | 74.5 ± 4.7 (≈ 189 µM) | 0.5 (≈ 1.27 µM) | 256 (≈ 651 µM) | 83.7 ± 3.2 (≈ 213 µM) | MFC/MBC [2]: 0.5 µg/mL (≈ 1.27 µM) |
| Cc1cccc(C)c1Nc1nnc(-c2ccc(Cl)cc2)s1 [D] |  |  |  |  |  |  | IC50 (urease [3]; urease, read-out: IC50): 214700 ± 160 nM |
| Cc1ccc(-n2c(C(O)c3ccccc3)n[nH]c2=S)cc1 (centres unmarked) [A] |  |  |  |  |  |  | IC50 (urease [3]; urease, read-out: IC50): 16700 ± 178 nM |
| CSc1nn2c(-c3ccccc3)nnc2s1 [Compound 6o, 6-(methylthio)-3-phenyl-[1,2,4]triazolo[3,4-b][1,3,4]thiadiazole] |  | 213 to 215 |  |  |  |  |  |
| OC(Cn1cncn1)(Cn1cncn1)c1ccc(F)cc1F [Fluconazole, reference compound] |  |  |  | 2 (≈ 6.53 µM) |  |  |  |
| Clc1ccc(CSc2nn3c(-c4ccccc4)nnc3s2)cc1 [Compound 6g, 6-((4-chlorobenzyl)thio)-3-phenyl-[1,2,4]triazolo[3,4-b][1,3,4]thiadiazole] | 1.68 ± 0.73 | 218 to 220 | 75.4 ± 6.1 (≈ 210 µM) | 2 (≈ 5.57 µM) | 256 (≈ 713 µM) |  | urease inhibitory activity IC50 (µg/mL) ± SD (C. neoformans (H99); C. neoformans): 94.3 ± 5.9 µg/mL; IC50 (C. neoformans (H99); [4]): 93.3 µg/mL (≈ 260 µM); MFC/MBC [2]: 4 µg/mL (≈ 11.1 µM) |
| Clc1cccc(CSc2nn3c(-c4ccccc4)nnc3s2)c1 [Compound 6f, 6-((3-chlorobenzyl)thio)-3-phenyl-[1,2,4]triazolo[3,4-b][1,3,4]thiadiazole] | 1.25 ± 0.19 | 216 to 218 | 73.2 ± 5.5 (≈ 204 µM) | 1 (≈ 2.79 µM) | 256 (≈ 713 µM) | 87.5 ± 8.1 (≈ 244 µM) | MFC/MBC [2]: 2 µg/mL (≈ 5.57 µM) |
| NC(N)=S [Thiourea, reference compound] |  |  |  |  |  |  | IC50 (Jack bean urease; [5]): 22.5 ± 2.34 µM |
| Fc1ccc(CSc2nn3c(-c4ccccc4)nnc3s2)cc1 [Compound 6d, 6-((4-fluorobenzyl)thio)-3-phenyl-[1,2,4]triazolo[3,4-b][1,3,4]thiadiazole] | 1.01 ± 0.13 | 199 to 201 | 91 ± 6.4 (≈ 266 µM) | > 256 | 256 (≈ 748 µM) | 118 ± 8.6 (≈ 344 µM) |  |

Source: publication PMC10287669, “[1,2,4]triazolo[3,4-b][1,3,4]thiadiazole derivatives as new therapeutic candidates against urease positive microorganisms: design, synthesis, pharmacological evaluations, and in silico studies” (Scientific Reports, 2023)
